Test results: patent US20160304957A1, “TREATMENT AND MODULATION OF GENE EXPRESSION AND SKIN AGING” (DSM NUTRITIONAL PRODUCTS LTD., priority 2006, published 2016)

Columns and labels:
Assay in all cases: QRT-PCR gene expression in HaCaT cells with or without UVA
Assay type in all cases: cell-based, human
RARα = tested on: RARα
Experimental: (§1) HaCaT cells were obtained from Prof. Fusenig, German Cancer Research Centre, Heidelberg. […] The accuracy of cell counting was approximately 99%.
(§2) On day 3 of the experiment, cells were washed six times with Ca/Mg-free PBS containing 2% BSA, and then irradiated with light with a Hönle sun lamp Sol 500 (Dr. Hönle, Plannegg, Germany) at a dose of 270 kJ/m^2 in Ca/Mg-free PBS (2 hour exposure time at […]). The experimental schedule was chosen because the cells had optimal UVA sensitivity after 48 hours in culture. […] Confluent cultures were much less sensitive to irradiation.
(§3) After irradiation, the cells were supplied with fresh β-carotene-containing serum-free medium and kept in the incubator at 37° C., 5% CO2 until harvest of the samples. In experiments in which the half-life of ^1O2 was prolonged by D2O to enhance its effect, PBS was prepared in D2O, instead of in H2O, as it was done for the standard conditions described above. Cells were washed twice in D2O-PBS prior to irradiation in D2O-PBS. After irradiation, cells were maintained with fresh β-carotene-containing serum-free medium. Sham controls were treated in an identical manner, by placing them under the solar simulator but shielded from light.
(§4) Total RNA was isolated by using Trizol™ (Invitrogen, Basel, Switzerland) according to the instructions of the manufacturer. Random-primed cDNA was synthesized using the Superscript pre-amplification system for first strand cDNA synthesis (Invitrogen).
(§5) cDNA corresponding to 10 ng total RNA was used as template to quantify the relative RNA expression of the genes of interest by TaqMan® real time PCR.
(§6) The PCR analyses were carried out in triplicate and in a multiplex setup, using 18S rRNA as a calibrator gene. The rRNA primers were used at a final concentration of 50 nM, the probe at 100 nM. For quantification of the genes of interest, the primer concentrations were optimized for sensitivity of template detection. […] PCR reactions were carried out for 40 cycles of 95° C. for 15 seconds and 60° C. for 1 minute in an ABI7700 (Applied Biosystems, Rotkreuz, Switzerland). Regulation of gene expression was calculated as described in user bulletin #2 provided by the manufacturer. A threshold cycle (“CT”) is the first PCR cycle in which an amplification signal is detected. Expression levels are given as δCT values. The δCT value describes the level of gene expression as the average PCR cycle, in which the gene of interest was detected first (CT value), subtracted by the CT value of the calibrator gene 18S rRNA (CTgene of interest−CTcalibrating gene), 18S rRNA served as a measure for the amount of template in the reaction. Routinely, 18S rRNA was detected between PCR cycle 12 and 13 (SE=standard error) A low δCT corresponds to a high mRNA level.
(§7) HaCaT cells were pretreated for 2 days with 0.5, 1.5 or 3 μM β-carotene. The cells were irradiated with UVA (270 kJ/m^2) either in D2O-containing PBS or in H2O-containing PBS, to analyze ^1O2 inducibility of genes. Gene expression 5 hours after UVA irradiation was analyzed by QRT-PCR. Values are geometric means±standard error from three independent experiments. Upregulations greater than 1.5-fold are labelled in bold black, downregulations below 0.66-fold are bold grey.

RARβ = tested on: RARβ
Experimental: as §1, §2, §3, §4, §5, §6, §7

RXRα = tested on: RXRα
Experimental: as §1, §2, §3, §4, §5, §6, §7

RXRβ = tested on: RXRβ
Experimental: as §1, §2, §3, §4, §5, §6, §7

[1] = tested on: β-Carotene-15,15′-oxygenase
Experimental: as §1, §2, §3, §4, §5, §6, §7

[2] = tested on: β-carotene-9′,10′-oxygenase
Experimental: as §1, §2, §3, §4, §5, §6, §7

[3] = β-carotene, UVA, D2O treatments

CC1=C(/C=C/C(C)=C/C=C/C(C)=C/C=C/C=C(C)/C=C/C=C(C)/C=C/C2=C(C)CCCC2(C)C)C(C)(C)CCC1 [β-carotene, All-E-β-carotene]
basal or UVA-regulated expression level of RARα (RARα): no significant effect | RARα fold induction (RARα; D2O, UVA/βC 0.5 μM): 1.06 fold | RARα fold induction (RARα; D2O, UVA/βC 1.5 μM): 1.21 fold | RARα fold induction (RARα; D2O, UVA/βC 3 μM): 0.52 fold | RARα fold induction (RARα; D2O, βC 0.5 μM): 1.01 fold | RARα fold induction (RARα; D2O, βC 1.5 μM): 1.02 fold | RARα fold induction (RARα; D2O, βC 3 μM): 1.18 fold | RARα fold induction (RARα; H2O, UVA/βC 0.5 μM): 1.45 fold | RARα fold induction (RARα; H2O, UVA/βC 1.5 μM): 0.47 fold | RARα fold induction (RARα; H2O, UVA/βC 3 μM): 0.71 fold | RARα fold induction (RARα; H2O, βC 0.5 μM): 0.56 fold | RARα fold induction (RARα; H2O, βC 1.5 μM): 0.67 fold | RARα fold induction (RARα; H2O, βC 3 μM): 0.55 fold | basal or UVA-regulated expression level of RARβ (RARβ): no significant effect | RARβ fold induction (RARβ; D2O, UVA/βC 0.5 μM): 2.49 fold | RARβ fold induction (RARβ; D2O, UVA/βC 1.5 μM): 1.69 fold | RARβ fold induction (RARβ; D2O, UVA/βC 3 μM): 2.35 fold | RARβ fold induction (RARβ; D2O, βC 0.5 μM): 1.25 fold | RARβ fold induction (RARβ; D2O, βC 1.5 μM): 2.46 fold | RARβ fold induction (RARβ; D2O, βC 3 μM): 2.79 fold | RARβ fold induction (RARβ; H2O, UVA/βC 0.5 μM): 0.44 fold | RARβ fold induction (RARβ; H2O, UVA/βC 1.5 μM): 0.90 fold | RARβ fold induction (RARβ; H2O, UVA/βC 3 μM): 0.86 fold | RARβ fold induction (RARβ; H2O, βC 0.5 μM): 0.81 fold | RARβ fold induction (RARβ; H2O, βC 1.5 μM): 1.20 fold | RARβ fold induction (RARβ; H2O, βC 3 μM): 1.84 fold | RARβ induction, dose-dependent (RARβ; predominantly in unirradiated cells): non-significantly induced | basal or UVA-regulated expression level of RXRα (RXRα): no significant effect | RXRα fold induction (RXRα; D2O, UVA/βC 0.5 μM): 0.68 fold | RXRα fold induction (RXRα; D2O, UVA/βC 1.5 μM): 0.31 fold | RXRα fold induction (RXRα; D2O, UVA/βC 3 μM): 0.38 fold | RXRα fold induction (RXRα; D2O, βC 0.5 μM): 1.25 fold | RXRα fold induction (RXRα; D2O, βC 1.5 μM): 0.82 fold | RXRα fold induction (RXRα; D2O, βC 3 μM): 1.06 fold | RXRα fold induction (RXRα; H2O, UVA/βC 0.5 μM): 0.96 fold | RXRα fold induction (RXRα; H2O, UVA/βC 1.5 μM): 0.27 fold | RXRα fold induction (RXRα; H2O, UVA/βC 3 μM): 0.58 fold | RXRα fold induction (RXRα; H2O, βC 0.5 μM): 0.89 fold | RXRα fold induction (RXRα; H2O, βC 1.5 μM): 0.98 fold | RXRα fold induction (RXRα; H2O, βC 3 μM): 1.13 fold | basal or UVA-regulated expression level of RXRβ (RXRβ): no significant effect | RXRβ fold induction (RXRβ; D2O, UVA/βC 0.5 μM): 1.23 fold | RXRβ fold induction (RXRβ; D2O, UVA/βC 1.5 μM): 1.09 fold | RXRβ fold induction (RXRβ; D2O, UVA/βC 3 μM): 0.76 fold | RXRβ fold induction (RXRβ; D2O, βC 0.5 μM): 1.32 fold | RXRβ fold induction (RXRβ; D2O, βC 1.5 μM): 1.17 fold | RXRβ fold induction (RXRβ; D2O, βC 3 μM): 1.61 fold | RXRβ fold induction (RXRβ; H2O, UVA/βC 0.5 μM): 0.93 fold | RXRβ fold induction (RXRβ; H2O, UVA/βC 1.5 μM): 0.71 fold | RXRβ fold induction (RXRβ; H2O, UVA/βC 3 μM): 1.04 fold | RXRβ fold induction (RXRβ; H2O, βC 0.5 μM): 0.67 fold | RXRβ fold induction (RXRβ; H2O, βC 1.5 μM): 0.99 fold | RXRβ fold induction (RXRβ; H2O, βC 3 μM): 0.99 fold | βC-15,15′-oxygenase fold induction ([1]; D2O, UVA/βC 0.5 μM): 1.08 fold | βC-15,15′-oxygenase fold induction ([1]; D2O, UVA/βC 1.5 μM): 0.90 fold | βC-15,15′-oxygenase fold induction ([1]; D2O, UVA/βC 3 μM): 0.91 fold | βC-15,15′-oxygenase fold induction ([1]; D2O, βC 0.5 μM): 1.19 fold | βC-15,15′-oxygenase fold induction ([1]; D2O, βC 1.5 μM): 1.03 fold | βC-15,15′-oxygenase fold induction ([1]; D2O, βC 3 μM): 0.43 fold | βC-15,15′-oxygenase fold induction ([1]; H2O, UVA/βC 0.5 μM): 0.60 fold | βC-15,15′-oxygenase fold induction ([1]; H2O, UVA/βC 1.5 μM): 0.84 fold | βC-15,15′-oxygenase fold induction ([1]; H2O, UVA/βC 3 μM): 0.91 fold | βC-15,15′-oxygenase fold induction ([1]; H2O, βC 0.5 μM): 1.09 fold | βC-15,15′-oxygenase fold induction ([1]; H2O, βC 1.5 μM): 1.19 fold | βC-15,15′-oxygenase fold induction ([1]; H2O, βC 3 μM): 1.08 fold | β-Carotene-15,15′-oxygenase RNA level [1, 3]: not significantly influenced | βC-9′,10′-oxygenase fold induction ([2]; D2O, UVA/βC 0.5 μM): 1.43 fold | βC-9′,10′-oxygenase fold induction ([2]; D2O, UVA/βC 1.5 μM): 2.30 fold | βC-9′,10′-oxygenase fold induction ([2]; D2O, UVA/βC 3 μM): 2.19 fold | βC-9′,10′-oxygenase fold induction ([2]; D2O, βC 0.5 μM): 0.93 fold | βC-9′,10′-oxygenase fold induction ([2]; D2O, βC 1.5 μM): 1.19 fold | βC-9′,10′-oxygenase fold induction ([2]; D2O, βC 3 μM): 1.11 fold | βC-9′,10′-oxygenase fold induction ([2]; H2O, UVA/βC 0.5 μM): 0.75 fold | βC-9′,10′-oxygenase fold induction ([2]; H2O, UVA/βC 1.5 μM): 0.70 fold | βC-9′,10′-oxygenase fold induction ([2]; H2O, UVA/βC 3 μM): 0.99 fold | βC-9′,10′-oxygenase fold induction ([2]; H2O, βC 0.5 μM): 0.90 fold | βC-9′,10′-oxygenase fold induction ([2]; H2O, βC 1.5 μM): 0.85 fold | βC-9′,10′-oxygenase fold induction ([2]; H2O, βC 3 μM): 0.76 fold | β-carotene-9′,10′-oxygenase RNA level [2, 3]: not significantly influenced
